Consider one molecule from patent publication US8236359B2, “Use of phytoecdysones in the preparation of a composition for acting on the metabolic syndrome” (Institut Biophytis SAS, priority 2007, dated 2012).

SMILES strings stand for the structures.

The subject of experiment [1] is male mice C57 BL/6. Put plainly: Effect of phytoecdysones on mice subjected to a normal control diet. Type of experiment: in vivo, mice (Mus musculus line C57BI6). On the procedure:
At the same time, another test is carried out for studying the effect of these same phytoecdysones on mice which have not been subjected to a fat diet, which is considered as a normal control diet.
(§1) The 24 mice of each series have been subjected to a diet, such as detailed in the table 2, for three weeks and have been treated at the same time with the pure molecule, or a quinoa extract enriched up to 1.6% (2.24% the last treatment week for the control series) or 7% of 20-hydroxyecdysone (20E). The concentration of 20-hydroxyecdysone is adjusted to 40 mg per kg of food.
(§2) While taking account of the amount of food ingested on average by the mice, the administered dose of 20E corresponds in the three treatments to 5 mg of 20E per kg of the body weight and per day. The food is supplied in excess, three times a week, for both diets and the three treatments. On average, 40 g of food are supplied for each cage and per day, i.e. 6.5 g of food for each mouse and per day.
(§3) The table 2 below indicates in more detail the composition of the food diet to which the mice are subjected.
(§4) At the time of the sacrifice, the weight of the mice (Bwt), as well as the weight of the liver, the epididymis adipose tissue (EAT) and the subcutaneous adipose tissue (SCAT) are measured.
(§5) Cells of the epididymis adipose tissue are taken for carrying out a count and a morphological analysis.

For experiment [2], the system named is male mice C57 BL/6. Briefly: Effect of phytoecdysones on mice subjected to a fat (lard, inductor) diet for three weeks. The format is in vivo, mice (Mus musculus line C57BI6). As for the experimental part:
A test is carried out for studying the effect of phytoecdysones on mice subjected to a fat diet for three weeks
The fat diet or inductor diet consists in supplying large amounts of fat matter in the form of lard. The mice selected for this study are male mice C57 BL/6, 6-weeks old at the beginning of this inductor diet. Such mice are a preferred study model for analyzing the impact of the quinoa extract enriched with phytoecdysones according to the invention on the physiological parameters of the metabolic syndrome.
The inductor diet is a diet enriched with lard.
as §1, §2, §3, §4, §5

As to `CC(C)(O)CC[C@@H](O)[C@](C)(O)[C@H]1CC[C@@]2(O)C3=CC(=O)[C@@H]4C[C@@H](O)[C@@H](O)C[C@]4(C)[C@H]3CC[C@]12C` [pure molecule, 20-hydroxyecdysone], in experiment [1], the “effect in non obese animals with a normal diet (conclusion)” value was “no effect”. The “adiposity, gonad (epididymis) adipose tissue (% EAT)” value in experiment [1] (three weeks, 5 mg 20E/kg/day, versus untreated mice, FIG. 2) is given as “does not modify the adiposity”. For the same molecule, the mode of the distribution of adipocyte diameters in experiment [2] (FIG. 5, lard control about 70) was 60 µm. The same molecule yielded a maximum adipocyte diameter of the distribution in experiment [2] (FIG. 5, lard control up to 110) of 90 µm. The “effect on adipocyte diameter” value in experiment [2] (epididymis adipose tissue cells, FIG. 4) is on record as “reduces the adipocyte sizes in a significant manner”. In addition, in experiment [2] (gonad and subcutaneous tissue), the “obesity / adiposity induced by hyperlipidical and hypercalorific diet (conclusion)” value is “avoid a development of the an obesity”. The “decrease of the adiposity, gonad (epididymis) adipose tissue (% EAT)” value in experiment [2] (three weeks, 5 mg 20E/kg/day, versus untreated lard-diet mice, FIG. 2) turned out to be 50%.
